From paper PMC3681751, “Identification of a Novel Antimicrobial Peptide from Human Hepatitis B Virus Core Protein Arginine-Rich Domain (ARD)” (PLoS Pathogens, 2013)
Like-named read-outs stand apart in the source and are kept apart here. Residues, ends and D or L forms follow the SMILES beside them.

How the values were obtained:
[1] = test system: P. aeruginosa (ATCC 27853); type: cell-based, Pseudomonas aeruginosa
Protocol: (§1) The antimicrobial activities of HBc ARD peptides were tested using a number of bacterial strains from ATCC, including Pseudomonas aeruginosa Migula strain (ATCC 27853, ampicillin-resistant), Pseudomonas aeruginosa Migula strain (ATCC 9027, ampicillin-resistant), Klebsiella pneumoniae strain (ATCC 17593), Escherichia coli strain (ATCC 25922), Staphylococcus aureus subsp. strain (ATCC 25923, methicillin-resistant), Staphylococcus aureus subsp. strain (ATCC 29213, methicillin-resistant), Staphylococcus aureus subsp. strain (ATCC 19636, methicillinresistant), and Candida albicans strain (ATCC 10231).
(§2) All peptides were purchased from Yao-Hong Biotechnology Inc. (Taipei, Taiwan). Vendors provided data of peptide characterizations, including HPLC and Mass (data not shown). Antimicrobial activity was determined as described with some modifications as detailed below. Bacteria were grown overnight in Mueller–Hinton broth (Difco) at 37°C, and during the mid-logarithmic phase, bacteria were diluted to 10^6 CFU (colony formation unit)/ml in phosphate buffer (10 mM sodium phosphate and 50 mM sodium chloride, pH 7.2). Peptides were serially diluted in the same buffer. Fifty microliter (µl) of bacteria was mixed with fifty µl of peptides at varying concentrations followed by incubation at 37°C for 3 hours without shaking. At the end of incubation, bacteria were placed on Mueller-Hinton broth agar plates, and allowed growth at 37°C overnight for measurement of minimal bactericidal concentration (MBC). […] All peptides were tested in triplicate.

[2] = test system: P. aeruginosa (ATCC 9027); type: cell-based, Pseudomonas aeruginosa; conditions: for MBC against P. aeruginosa: summary over the P. aeruginosa strains of Table 1 (ATCC 9027, ATCC 27853)
Protocol: as §1, §2

[3] = test system: E. coli (ATCC 25922); type: cell-based, Escherichia coli; conditions: 3 h at 37°C in phosphate buffer pH 7.2; triplicate
Protocol: as §1, §2

[4] = test system: K. pneumonia (ATCC 13884); type: cell-based, Klebsiella pneumoniae
[5] = ampicillin-resistant strain, 3 h at 37°C in phosphate buffer pH 7.2, triplicate
[6] = 3 h at 37°C in phosphate buffer pH 7.2, triplicate

SMILES	Antimicrobial activity, MBC ([1]; ATCC 27853, 3 h, pH 7.2) [µM]	Antimicrobial activity, MBC [1, 5] [µg/mL]	Antimicrobial activity, MBC ([2]; ATCC 9027, 3 h, pH 7.2) [µM]	Antimicrobial activity, MBC [2, 5] [µg/mL]	MBC against P. aeruginosa [2]	Antimicrobial activity, MBC [3] [µg/mL]	Antimicrobial activity, MBC [4, 6] [µg/mL]	Antimicrobial activity, MBC ([4]; ATCC 13884, 3 h, pH 7.2) [µM]
C[C@@H](O)[C@H](NC(=O)[C@H](CCCNC(=N)N)NC(=O)[C@H](CCCNC(=N)N)NC(=O)[C@H](CCCNC(=N)N)NC(=O)[C@@H]1CCCN1C(=O)[C@@H](N)CO)C(=O)N1CCC[C@H]1C(=O)N[C@@H](CO)C(=O)N1CCC[C@H]1C(=O)N[C@@H](CCCNC(=N)N)C(=O)N[C@@H](CCCNC(=N)N)C(=O)N[C@@H](CCCNC(=N)N)C(=O)N[C@@H](CCCNC(=N)N)C(=O)N[C@@H](CO)C(=O)N[C@@H](CCC(N)=O)C(=O)N[C@@H](CO)C(=O)N1CCC[C@H]1C(=O)N[C@@H](CCCNC(=N)N)C(=O)N[C@@H](CCCNC(=N)N)C(=O)N[C@@H](CCCNC(=N)N)C(=O)N[C@@H](CCCNC(=N)N)C(=O)O [HBc155-175] (H-SPRRRTPSPRRRRSQSPRRRR-OH; N-terminus and C-terminus assumed)	16	43.23	2	5.4	strong activity	> 86.46	> 86.46	> 32
C[C@@H](O)[C@H](NC(=O)[C@H](CCCNC(=N)N)NC(=O)[C@H](CCCNC(=N)N)NC(=O)[C@@H](N)CCCNC(=N)N)C(=O)N1CCC[C@H]1C(=O)N[C@@H](CO)C(=O)N1CCC[C@H]1C(=O)N[C@@H](CCCNC(=N)N)C(=O)N[C@@H](CCCNC(=N)N)C(=O)N[C@@H](CCCNC(=N)N)C(=O)N[C@@H](CCCNC(=N)N)C(=O)N[C@@H](CO)C(=O)N[C@@H](CCC(N)=O)C(=O)N[C@@H](CO)C(=O)N1CCC[C@H]1C(=O)N[C@@H](CCCNC(=N)N)C(=O)N[C@@H](CCCNC(=N)N)C(=O)N[C@@H](CCCNC(=N)N)C(=O)N[C@@H](CCCNC(=N)N)C(=O)N[C@@H](CO)C(=O)O [HBc157-176] (H-RRRTPSPRRRRSQSPRRRRS-OH; N-terminus and C-terminus assumed)	2	5.2	2	5.2	strong activity	> 83.36	> 83.36	> 32
C[C@@H](O)[C@H](NC(=O)[C@H](CCCNC(=N)N)NC(=O)[C@H](CCCNC(=N)N)NC(=O)[C@@H](N)CCCNC(=N)N)C(=O)N1CCC[C@H]1C(=O)N[C@@H](CO)C(=O)N1CCC[C@H]1C(=O)N[C@@H](CCCNC(=N)N)C(=O)N[C@@H](CCCNC(=N)N)C(=O)N[C@@H](CCCNC(=N)N)C(=O)N[C@@H](CCCNC(=N)N)C(=O)N[C@@H](CO)C(=O)N[C@@H](CCC(N)=O)C(=O)N[C@@H](CO)C(=O)N1CCC[C@H]1C(=O)N[C@@H](CCCNC(=N)N)C(=O)N[C@@H](CCCNC(=N)N)C(=O)N[C@@H](CCCNC(=N)N)C(=O)N[C@@H](CCCNC(=N)N)C(=O)O [HBc157-175] (H-RRRTPSPRRRRSQSPRRRR-OH; N-terminus and C-terminus assumed)	> 32	> 80.58	2	–	strong activity	> 80.58	> 80.58	> 32
C[C@@H](O)[C@H](NC(=O)[C@H](CCCNC(=N)N)NC(=O)[C@H](CCCNC(=N)N)NC(=O)[C@H](CCCNC(=N)N)NC(=O)[C@@H]1CCCN1C(=O)[C@H](CO)NC(=O)[C@H](CCCNC(=N)N)NC(=O)CN)C(=O)N1CCC[C@H]1C(=O)N[C@@H](CO)C(=O)N1CCC[C@H]1C(=O)N[C@@H](CCCNC(=N)N)C(=O)N[C@@H](CCCNC(=N)N)C(=O)N[C@@H](CCCNC(=N)N)C(=O)N[C@@H](CCCNC(=N)N)C(=O)N[C@@H](CO)C(=O)N[C@@H](CCC(N)=O)C(=O)N[C@@H](CO)C(=O)N1CCC[C@H]1C(=O)N[C@@H](CCCNC(=N)N)C(=O)N[C@@H](CCCNC(=N)N)C(=O)N[C@@H](CCCNC(=N)N)C(=O)N[C@@H](CCCNC(=N)N)C(=O)O [HBc153-175] (H-GRSPRRRTPSPRRRRSQSPRRRR-OH; N-terminus and C-terminus assumed)	2	5.8	2	5.8	strong activity	46.64	93.28	> 32
CC(C)[C@H](NC(=O)[C@@H](NC(=O)[C@@H](N)[C@@H](C)O)C(C)C)C(=O)N[C@@H](CCCNC(=N)N)C(=O)N[C@@H](CCCNC(=N)N)C(=O)N[C@@H](CCCNC(=N)N)C(=O)NCC(=O)N[C@@H](CCCNC(=N)N)C(=O)N[C@@H](CO)C(=O)N1CCC[C@H]1C(=O)N[C@@H](CCCNC(=N)N)C(=O)N[C@@H](CCCNC(=N)N)C(=O)N[C@@H](CCCNC(=N)N)C(=O)N[C@H](C(=O)N1CCC[C@H]1C(=O)N[C@@H](CO)C(=O)N1CCC[C@H]1C(=O)N[C@@H](CCCNC(=N)N)C(=O)N[C@@H](CCCNC(=N)N)C(=O)N[C@@H](CCCNC(=N)N)C(=O)N[C@@H](CCCNC(=N)N)C(=O)O)[C@@H](C)O [HBc147-167] (H-TVVRRRGRSPRRRTPSPRRRR-OH; N-terminus and C-terminus assumed)	> 32	> 85	> 32	> 85	–	> 85	21.3	–
